Where no end group is shown, it is not given here. The star is where a group is joined. Biotin = O=C1N[C@H]2[C@H](CS[C@H]2CCCCC(=O)*)N1
System: pellicle-coated enamel substrates
Test: not given
Settings: 20 μM synthetic biotinylated peptide, 30 min at 37° C.; normalized to DenP03; three replicates; no peptide −0.001
Protocol: A total of 20 synthetic peptides were manufactured using sequences obtained from Table 14. Peptides were obtained from Synbiosci (Livermore, Calif.) and included an additional SSRP sequence (SEQ ID NO: 151) at the N-terminus and biotin labeled lysine at the C-terminus.
Enamel substrates were cut to approx. 7 mm squares and mounted on wax mounting for incubation in the mouth for 30 min to form a pellicle coated surface. The pellicle-coated enamel substrates were removed from the wax backing and placed in well plates with the pellicle surface exposed as in Example 1. Each pellicle-coated substrate was incubated for 1 h at room temperature (˜22° C.) with 1 mL of blocking buffer, consisting of 1 mg/mL BSA in PBST (Pierce BupH™ #28372 with 0.1% TWEEN® 20). The blocking buffer was removed by aspirating the liquid out of each well. The tube was rinsed 2 times with wash buffer consisting of PBST. The wells were filled with 500 μL of 20 μM peptide solution which was prepared by diluting in blocking buffer. The samples were incubated for 30 min with slow shaking at 37° C. The non-binding peptide was removed by washing 6 times with PBST. Then, 500 μL of horseradish peroxidase/streptavidin conjugate (Pierce #22127), diluted 1:2000 in PBST, was added and incubated for 1 h at room temperature. The conjugate solution was removed and was washed 4 times with PBST.
Each enamel substrate was removed from the well and washed again in a 15-mL test tube with 10 mL of PBST. Each enamel substrate was then mounted in a clean well plate with only the enamel surface exposed. A 1:1 solution of TMB substrate and H2O2 (200 μL), obtained from Pierce Biotechnology (Rockford, Ill.) was added to each well and the color was allowed to develop for between 10 to 20 min, typically for 15 min, at room temperature (˜22° C.). Then, 100 μL of solution from each well was transferred to a 96-well reading plate containing stop solution (100 μL of 2 M H2SO4) in each well. The A450 was measured using a microplate spectrophotometer (Molecular Devices, Sunnyvale, Calif.). […] Each sequence was tested with three replicate enamel coated pellicle substrates.

Substance	O.D. at 450 nm (normalized)
SSRPTTYHYKNIYQESYQQRNPAVK(Biotin) [DenP3-A]	1.000
SSRPHKNENIMQYNVNDRWHITPAK(Biotin) [DenP32-A]	1.135

System: not listed separately
Test: Phage ELISA, polished enamel-binding assay
Parameters: species or system bovine
Settings: phage ELISA on polished enamel, over 10^10 pfu phage; no-phage control 0.112
Protocol: A total of 11 selected phage candidates (Example 3) were used in a phage ELISA experiment. Purified phage lysates were used for binding to the enamel blocks using an anti-M13 phage antibody conjugated to horseradish-peroxidase, followed by the addition of chromogenic agent TMB, obtained from Pierce Biotechnology (Rockford, Ill.). The plates were read at A450 nm.
For each phage candidate to be tested, the polished and unpolished enamel blocks were incubated for 1 h at room temperature with 200 μL of blocking buffer, consisting of 2% non-fat dry milk (Schleicher & Schuell, Inc.) in TBS. […] The tube was rinsed 6 times with wash buffer consisting of TBST-0.05%. The wells were filled with 200 μL of TBST-0.5% containing 1 mg/mL BSA and then 10 μL (over 10^10 pfu) of purified phage stock was added. The samples were incubated at room temperature for 60 min with slow shaking. The non-binding phage was removed by washing 6 times with TBST-0.5%. […] The conjugate solution was removed and was washed 6 times with TBST-0.5%. […] “BoEn P” means bovine polished enamel and BoEn means bovine enamel.

O.D. at 450 nm	Substance
0.83	NTCQPTKNATPCSA (Tooth-binding peptide) [BoEn P6]
0.665	GYCLRGDEPAVCSG (Tooth-binding peptide) [BoEn P3]
0.797	NFCETQLDLSVCTV (Tooth-binding peptide) [BoEn P5]
2.02	THNMSHFPPSGHPKRTAT (Tooth-binding peptide) [BoEn P8]
0.641	EPPTRTRVNNHTVTVQAQQH (Tooth-binding peptide) [BoEn P2]

System: pellicle-coated enamel substrates
Test: not given
Settings: range of peptide concentrations, 2 h at 37° C., 4-MUP fluorescence; calculated from Scatchard plots
Description: The pellicle-coated enamel substrates were removed from the wax backing and placed in well plates with the pellicle surface exposed as in Example 1. […] The blocking buffer was removed by aspirating the liquid out of each well. The tube was rinsed 2 times with wash buffer consisting of PBST. […] The non-binding peptide was removed by washing 6 times with PBST. […] The conjugate solution was removed and was washed 4 times with PBST.
Each enamel substrate was removed from the well and washed again in a 15-mL test tube with 10 mL of PBST. Each enamel substrate was then mounted in a clean well plate with only the enamel surface exposed.

Substance	MB50 [µM]
SSRPTTYHYKNIYQESYQQRNPAVK(Biotin) [DenP3-A]	28
SSRPHKNENIMQYNVNDRWHITPAK(Biotin) [DenP32-A]	25

System: not given
Test: not given
Settings: 20 μM biotinylated peptide; mean of at least three replicates; no-peptide control 0.066
Description: Enzyme-linked immunosorbent assay (ELISA) was used to evaluate the cellulose acetate coated iron oxide particle-binding affinity of the biopanning selected peptide candidates (Example 6; biotinylated peptides phage ID: CA-1 to CA-4). The identified peptides were synthesized using a standard solid-phase synthesis method (see U.S. patent application Ser. No. 11/251/715). All peptides were modified to contain a biotinylated lysine residue at the C-terminus of the amino acid binding sequence for detection purposes (Table 6).
The cellulose acetate-coated iron oxide particles were dispersed in water at 2.5 mg per mL. […] The particle dispersion (1 mL each) was then centrifuged for 2 min at 5000 rpm, the aqueous was removed by aspirating it out of each tube. The tubes were incubated in SUPERBLOCK® blocking buffer (Pierce Chemical Company, Rockford, Ill.; Prod. #37535) for 1 hour at room temperature (˜22° C.), followed by 3 washes with TBST (TBS in 0.05% TWEEN® 20). Then tubes were then rinsed 3 times with wash buffer consisting of TBST-0.05% using the same centrifugation and aspiration methods. Peptide binding buffer consisting of 20 μM biotinylated peptides in TBST and 1 mg/mL BSA was added to the particles and incubated for 1 hour at room temperature (˜22° C.), followed by 6 TBST washes. Then, the streptavidin-alkaline phosphatase (AP) conjugate (Pierce Chemical Co., Rockford, Ill.) was added to each well at standard concentration and incubated for 1 hour at room temperature, followed by 6 times of washes with TBST. All particles were then transferred to new tubes and then the color development and the absorbance measurements were performed following the manufacturer's standard protocols.

Substance	O.D. at 405 nm
ATTPPSGKAAAHSAARQKGN-K-biotin-NH2 [CA-1]	0.269
NGNNHTDIPNRSSYTGGSFA-K-biotin-NH2 [CA-3]	0.279
DTIHPNKMKSPSSPL-K-biotin-NH2 [CA-2]	0.207
SDETGPQIPHRRPTW-K-biotin-NH2 [CA-4]	0.141
